In patent US20140322193A1, “Therapies for Disorders of the Cornea and Conjunctiva” (priority 2011, published 2014):
“Also recorded” adds a separate entry of the source.

Experiments:
CBA/J mice = test: Mouse BTX-B dry eye model, corneal fluorescein staining (corneal ulceration); assay type: in vivo; settings: for Corneal fluorescein staining, MEAN, DAY 7: 7 days after BTX-B injection; for Corneal fluorescein staining, MEAN, DAY 7 / Corneal fluorescein staining, MEAN, DAY 14: eye drops twice daily in Refresh Celluvisc (A-438079 20 μM, BBG 20 μM, oxATP 300 μM), grade 0 to 4 scale; for Corneal fluorescein staining, MEAN, DAY 14: 14 days after BTX-B injection; for Corneal fluorescein staining, MEAN, DAY 0: day 0, prior to BTX-B injection (baseline), grade on 0 to 4 scale of Table 2; for Effect on corneal fluorescein staining (in words): days 7 and 14, chosen dose, b.i.d. eye drops
mouse P2X7 receptor = molecular target: T1, mouse P2X7 receptor (Mus musculus, UniProt Q9Z1M0); settings: British Journal of Pharmacology 2009 157:1203; cited from earlier work
T1 sequence (Q9Z1M0 1-595): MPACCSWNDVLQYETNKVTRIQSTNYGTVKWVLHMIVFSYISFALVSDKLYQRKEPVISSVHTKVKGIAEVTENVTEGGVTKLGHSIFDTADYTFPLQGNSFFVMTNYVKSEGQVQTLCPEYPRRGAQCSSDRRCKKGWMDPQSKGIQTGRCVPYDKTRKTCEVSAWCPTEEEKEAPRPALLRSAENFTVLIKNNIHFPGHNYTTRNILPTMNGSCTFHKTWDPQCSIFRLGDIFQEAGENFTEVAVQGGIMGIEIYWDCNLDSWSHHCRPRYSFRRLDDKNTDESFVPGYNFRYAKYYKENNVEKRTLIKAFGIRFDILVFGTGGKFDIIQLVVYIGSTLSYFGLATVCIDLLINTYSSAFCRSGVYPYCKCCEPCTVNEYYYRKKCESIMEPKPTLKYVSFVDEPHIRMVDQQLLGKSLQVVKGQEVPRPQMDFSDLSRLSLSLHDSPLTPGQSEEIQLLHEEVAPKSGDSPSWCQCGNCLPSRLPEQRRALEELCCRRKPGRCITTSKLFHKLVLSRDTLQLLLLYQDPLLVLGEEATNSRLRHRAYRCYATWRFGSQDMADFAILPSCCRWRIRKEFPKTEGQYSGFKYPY

[1] = Preservation of 1 μM BBG ophthalmic composition in containers at 60° C. for 2 days; assay type: physicochemical; settings: 1 μM BBG in BSS, PET, polypropylene, polyethylene and glass containers
Procedure: BSS Sterile Irrigating Solution is obtained from Alcon Laboratories, Ft. Worth, Tex. BBG is obtained from Sigma Aldrich, St. Louis, Mo. With moderate stirring in a homomixer, 856 mg of BBG is added to 1 liter of BSS at room temperature. The mixture is then stirred until the BBG is completely in solution. This solution is a 1 mM stock solution. One ml of the stock solution is then added to one liter of BSS to yield the ophthalmic composition, which is 1 μM BBG in BSS. The ophthalmic composition is filtered through a membrane filter (0.45 μm pore diameter, Millipore), filled in a 15 mL polyethylene terephthalate eye drop container, a polypropylene container, a polyethylene container, and a glass container and preserved at 60° C. for 2 days. The amount of BBG from each container is measured before and after preservation.

Compound | Corneal fluorescein staining, MEAN, DAY 7 (CBA/J mice) | Corneal fluorescein staining, MEAN, DAY 14 (CBA/J mice) | Corneal fluorescein staining, MEAN, DAY 0 (CBA/J mice) | Effect on corneal fluorescein staining (in words) (CBA/J mice) | IC50 (mouse P2X7 receptor) | Degradation of active ingredient after preservation [1]
Clc1cccc(-c2nnnn2Cc2cccnc2)c1Cl [A-438079] | 1.70 | 2.70 | 0.00 | did not attenuate fluorescein staining | – | –
COc1ccc(CC(=O)NC(N=C(NC#N)Nc2cccc3ncccc23)C(C)(C)C)cc1OC (centres unmarked) [A-740003] | – | – | – | – | ~1 µM | –
CCOc1ccc(Nc2ccc(/C(=C3C=C/C(=[N+](/CC)Cc4cccc(S(=O)(=O)[O-])c4)C=C/3C)c3ccc(N(CC)Cc4cccc(S(=O)(=O)[O-])c4)cc3C)cc2)cc1.[Na+] [BBG, Coomassie Brilliant Blue G] | 1.50 | 2.00 | 0.00 | did not attenuate fluorescein staining | – | little degradation
Nc1ncnc2c1ncn2[C@@H](C=O)O[C@@H](C=O)COP(=O)(O)OP(=O)(O)OP(=O)(O)O [oxATP, periodate oxidized ATP] | 0.00 | 0.00 | 0.00 | completely prevented the fluorescein staining; also recorded: remarkably effective in preventing pathology | – | –
